Results from ChEMBL document CHEMBL2380271, “Synthesis and biological evaluation of a class of quinolone triazoles as potential antimicrobial agents and their interactions with calf thymus DNA” (2013).
Values after ≈ are worked out from the molar mass of the structure shown. Active and inactive are the calls of the source. The rule behind the calls is not given here.

Tests used:
[1] = system: DNA; test: Binding affinity to calf thymus DNA-NR complex assessed as increase in fluorescence intensity at 726 nm wavelength; assay type: nucleic-acid assay; conditions: Bos taurus
[2] = system: Shigella dysenteriae; test: Antibacterial activity against Shigella dysenteriae by NCCLS method; assay type: functional
[3] = system: DNA; test: Binding affinity to calf thymus DNA-NR complex assessed as decrease in fluorescence intensity at 640 nm wavelength; assay type: nucleic-acid assay; conditions: Bos taurus
[4] = system: Staphylococcus aureus; test: Antibacterial activity against Staphylococcus aureus ATCC 25923 by NCCLS method; assay type: functional
[5] = system: Candida albicans; test: Antifungal activity against Candida albicans by NCCLS method; assay type: functional
[6] = system: Salmonella typhi; test: Antibacterial activity against Eberthella typhosa by NCCLS method; assay type: functional, Salmonella enterica subsp. enterica serovar Typhi; conditions: Salmonella enterica
[7] = system: Escherichia coli; test: Antibacterial activity against Escherichia coli DH52 by NCCLS method; assay type: functional
[8] = system: DNA; test: Binding affinity to calf thymus DNA by fluorescence quenching assay in presence of potassium iodide; assay type: nucleic-acid assay; conditions: Bos taurus
[9] = system: Cyberlindnera jadinii; test: Antifungal activity against Candida utilis by NCCLS method; assay type: functional; conditions: Williopsis jadinii
[10] = system: Aspergillus flavus; test: Antifungal activity against Aspergillus flavus by NCCLS method; assay type: functional
[11] = system: DNA; test: Competitive binding affinity to calf thymus DNA by UV-vis spectroscopic analysis in presence of neutral red; assay type: nucleic-acid assay; conditions: Bos taurus
[12] = system: Micrococcus luteus; test: Antibacterial activity against Micrococcus luteus ATCC 4698 by NCCLS method; assay type: functional
[13] = system: Saccharomyces cerevisiae; test: Antifungal activity against Saccharomyces cerevisiae by NCCLS method; assay type: functional
[14] = system: DNA; test: Binding affinity to calf thymus DNA assessed as blue shift by UV-vis spectroscopic analysis; assay type: nucleic-acid assay; conditions: Bos taurus
[15] = system: Staphylococcus aureus; test: Antibacterial activity against methicillin-resistant Staphylococcus aureus N315 by NCCLS method; assay type: functional
[16] = system: Pseudomonas aeruginosa; test: Antibacterial activity against Pseudomonas aeruginosa by NCCLS method; assay type: functional
[17] = system: DNA; test: Binding affinity to calf thymus DNA at 0.5 to 3x10'-5 mol/L by fluorescence quenching assay; assay type: nucleic-acid assay; conditions: Bos taurus
[18] = system: Aspergillus flavus; test: Ratio of Fluconazole MIC to compound MIC for Aspergillus flavus; assay type: functional
[19] = system: Staphylococcus aureus; test: Ratio of norfloxacin MIC to compound MIC for methicillin-resistant Staphylococcus aureus N315; assay type: functional
[20] = system: Staphylococcus aureus; test: Ratio of chloromycin MIC to compound MIC for methicillin-resistant Staphylococcus aureus N315; assay type: functional

Row | Structure (SMILES) | Activity [1] | MIC [2] [µg/mL] | Activity [3] | MIC [4] [µg/mL] | MIC [5] [µg/mL] | MIC [6] [µg/mL] | MIC [7] [µg/mL] | KSV [8] [L/mol] | MIC [9] [µg/mL] | MIC [10] [µg/mL] | Activity [11] | MIC [12] [µg/mL] | MIC [13] [µg/mL] | K [14] [×10³ L/mol] | MIC [15] [µg/mL] | MIC [16] [µg/mL] | Activity [17] | Ratio [18] | Ratio [19] | Ratio [20]
1 | Cc1ccc2c(c1)c(=O)c(C(=O)O)cn2CC(O)Cn1cncn1 (centres undefined) | Active | 32 (≈ 97.5 µM) | Active | 32 (≈ 97.5 µM) | 2 (≈ 6.09 µM) | 8 (≈ 24.4 µM) | 32 (≈ 97.5 µM) | 6.53 | > 512 | 0.5 (≈ 1.52 µM) | Active | 16 (≈ 48.7 µM) | 4 (≈ 12.2 µM) | 1.43 | 8 (≈ 24.4 µM) | 16 (≈ 48.7 µM) | Active |  |  | 
2 | O=C(N[C@H](CO)[C@H](O)c1ccc([N+](=O)[O-])cc1)C(Cl)Cl [CHLORAMPHENICOL] |  | 32 (≈ 99 µM) |  | 16 (≈ 49.5 µM) | > 512 | 32 (≈ 99 µM) | 32 (≈ 99 µM) |  | > 512 | > 512 |  | 8 (≈ 24.8 µM) | > 512 |  | 16 (≈ 49.5 µM) | 32 (≈ 99 µM) |  |  |  | 
3 | CCOC(=O)c1cn(CC(O)Cn2cncn2)c2ccc(F)cc2c1=O (racemic) |  | 64 (≈ 178 µM) |  | 32 (≈ 88.8 µM) | 32 (≈ 88.8 µM) | 1 (≈ 2.78 µM) | 16 (≈ 44.4 µM) |  | 64 (≈ 178 µM) | 512 (≈ 1420 µM) |  | 8 (≈ 22.2 µM) | 512 (≈ 1420 µM) |  | 8 (≈ 22.2 µM) | 16 (≈ 44.4 µM) |  |  |  | 
4 | CCOC(=O)c1cn(CC2CO2)c2c(F)cccc2c1=O (racemic) |  | 512 (≈ 1760 µM) |  | 2 (≈ 6.87 µM) | 1 (≈ 3.43 µM) | 2 (≈ 6.87 µM) | 16 (≈ 54.9 µM) |  | > 512 | 0.5 (≈ 1.72 µM) |  | > 512 | 4 (≈ 13.7 µM) |  | 2 (≈ 6.87 µM) | 256 (≈ 879 µM) |  | 256 |  | 
5 | CCOC(=O)c1cn(CC2CO2)c2cc(C(F)(F)F)ccc2c1=O (racemic) |  | 256 (≈ 750 µM) |  | 256 (≈ 750 µM) | 4 (≈ 11.7 µM) | 2 (≈ 5.86 µM) | 64 (≈ 188 µM) |  | > 512 | 0.5 (≈ 1.47 µM) |  | 128 (≈ 375 µM) | 8 (≈ 23.4 µM) |  | 0.5 (≈ 1.47 µM) | 64 (≈ 188 µM) |  | 256 | 16 | 32
6 | CCOC(=O)c1cn(CC2CO2)c2ccc(F)cc2c1=O (racemic) |  | 64 (≈ 220 µM) |  | 32 (≈ 110 µM) | 16 (≈ 54.9 µM) | 8 (≈ 27.5 µM) | 64 (≈ 220 µM) |  | 256 (≈ 879 µM) | 1 (≈ 3.43 µM) |  | 512 (≈ 1760 µM) | 2 (≈ 6.87 µM) |  | 4 (≈ 13.7 µM) | 128 (≈ 439 µM) |  | 256 |  | 
7 | O=C(O)c1cn(CC(O)Cn2cncn2)c2ccc(F)cc2c1=O (centres undefined) |  | 0.5 (≈ 1.5 µM) |  | 128 (≈ 385 µM) | 64 (≈ 193 µM) | 1 (≈ 3.01 µM) | 32 (≈ 96.3 µM) |  | > 512 | 512 (≈ 1540 µM) |  | 32 (≈ 96.3 µM) | 512 (≈ 1540 µM) |  | 1 (≈ 3.01 µM) | 8 (≈ 24.1 µM) |  |  | 8 | 16
8 | CCOC(=O)c1cn(CC(O)Cn2cncn2)c2c(Cl)cc(Cl)cc2c1=O (racemic) |  | 128 (≈ 311 µM) |  | 1 (≈ 2.43 µM) | 512 (≈ 1240 µM) | 4 (≈ 9.73 µM) | 4 (≈ 9.73 µM) |  | > 512 | 0.5 (≈ 1.22 µM) |  | 8 (≈ 19.5 µM) | 32 (≈ 77.8 µM) |  | 1 (≈ 2.43 µM) | 4 (≈ 9.73 µM) |  |  | 8 | 16
9 | CCOC(=O)c1cn(CC2CO2)c2c(Cl)cc(Cl)cc2c1=O (racemic) |  | > 512 |  | 1 (≈ 2.92 µM) | 2 (≈ 5.84 µM) | 2 (≈ 5.84 µM) | 32 (≈ 93.5 µM) |  | > 512 | 0.5 (≈ 1.46 µM) |  | > 512 | 8 (≈ 23.4 µM) |  | 2 (≈ 5.84 µM) | 0.5 (≈ 1.46 µM) |  | 256 |  | 
10 | CCOC(=O)c1cn(CC(O)Cn2cncn2)c2cc(C(F)(F)F)ccc2c1=O (racemic) |  | 32 (≈ 78 µM) |  | 16 (≈ 39 µM) | 64 (≈ 156 µM) | 0.5 (≈ 1.22 µM) | 32 (≈ 78 µM) |  | 128 (≈ 312 µM) | 8 (≈ 19.5 µM) |  | 2 (≈ 4.87 µM) | 64 (≈ 156 µM) |  | 32 (≈ 78 µM) | 1 (≈ 2.44 µM) |  |  |  | 
11 | CCOC(=O)c1cn(CC2CO2)c2c(F)cc(F)cc2c1=O (racemic) |  | > 512 |  | 16 (≈ 51.7 µM) | 4 (≈ 12.9 µM) | 2 (≈ 6.47 µM) | 128 (≈ 414 µM) |  | > 512 | 1 (≈ 3.23 µM) |  | 2 (≈ 6.47 µM) | 64 (≈ 207 µM) |  | 8 (≈ 25.9 µM) | 64 (≈ 207 µM) |  | 256 |  | 
12 | CCOC(=O)c1cn(CC(O)Cn2cncn2)c2c(F)cc(F)cc2c1=O (racemic) |  | 32 (≈ 84.6 µM) |  | 1 (≈ 2.64 µM) | 64 (≈ 169 µM) | 0.5 (≈ 1.32 µM) | 8 (≈ 21.1 µM) |  | > 512 | 64 (≈ 169 µM) |  | 2 (≈ 5.29 µM) | 512 (≈ 1350 µM) |  | 32 (≈ 84.6 µM) | 4 (≈ 10.6 µM) |  |  |  | 
